In PubChem BioAssay (NCI):
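How tested: cells in 96-well plates exposed to compound for 48 hours at five concentrations. At the TGI there is no net growth.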

Key:
Test in all cases: DTP human tumour cell line panel, 48 h
786-0 renal = test system: 786-0 renal
A498 renal = test system: A498 renal
A549 NSCLC = test system: A549 NSCLC
ACHN renal = test system: ACHN renal
BT-549 breast = test system: BT-549 breast
CAKI-1 renal = test system: CAKI-1 renal
CCRF-CEM leukemia = test system: CCRF-CEM leukemia
COLO 205 colon = test system: COLO 205 colon
DU-145 prostate = test system: DU-145 prostate
EKVX NSCLC = test system: EKVX NSCLC
HCC-2998 colon = test system: HCC-2998 colon
HCT-116 colon = test system: HCT-116 colon
HCT-15 colon = test system: HCT-15 colon
HL-60(TB) leukemia = test system: HL-60(TB) leukemia
HOP-62 NSCLC = test system: HOP-62 NSCLC
HOP-92 NSCLC = test system: HOP-92 NSCLC
HS 578T breast = test system: HS 578T breast
HT29 colon = test system: HT29 colon
IGROV1 ovarian = test system: IGROV1 ovarian
K-562 leukemia = test system: K-562 leukemia
KM12 colon = test system: KM12 colon
LOX IMVI melanoma = test system: LOX IMVI melanoma
M14 melanoma = test system: M14 melanoma
MALME-3M melanoma = test system: MALME-3M melanoma
MCF7 breast = test system: MCF7 breast
MDA-MB-231 breast = test system: MDA-MB-231 breast
MDA-MB-435 = test system: MDA-MB-435
MDA-N = test system: MDA-N
MOLT-4 leukemia = test system: MOLT-4 leukemia
NCI-H226 lung = test system: NCI-H226 lung
NCI-H23 lung = test system: NCI-H23 lung
NCI-H460 lung = test system: NCI-H460 lung
NCI-H522 lung = test system: NCI-H522 lung
OVCAR-3 ovarian = test system: OVCAR-3 ovarian
OVCAR-4 ovarian = test system: OVCAR-4 ovarian
OVCAR-5 ovarian = test system: OVCAR-5 ovarian
PC-3 prostate = test system: PC-3 prostate
RPMI-8226 leukemia = test system: RPMI-8226 leukemia
RXF 393 renal = test system: RXF 393 renal
SF-268 CNS = test system: SF-268 CNS
SF-295 CNS = test system: SF-295 CNS
SF-539 CNS = test system: SF-539 CNS
SK-MEL-2 melanoma = test system: SK-MEL-2 melanoma
SK-MEL-28 melanoma = test system: SK-MEL-28 melanoma
SK-MEL-5 melanoma = test system: SK-MEL-5 melanoma
SK-OV-3 ovarian = test system: SK-OV-3 ovarian
SN12C renal = test system: SN12C renal
SNB-19 CNS = test system: SNB-19 CNS
SR leukemia = test system: SR leukemia
SW-620 colon = test system: SW-620 colon
T-47D breast = test system: T-47D breast
TK-10 renal = test system: TK-10 renal
U251 CNS = test system: U251 CNS
UACC-257 melanoma = test system: UACC-257 melanoma
UACC-62 melanoma = test system: UACC-62 melanoma
UO-31 renal = test system: UO-31 renal
NCI/ADR-RES ovarian = test system: NCI/ADR-RES ovarian
OVCAR-8 ovarian = test system: OVCAR-8 ovarian
SNB-75 CNS = test system: SNB-75 CNS

Question: `C=C1C(=O)O[C@@H]2O[C@@]3(C)CC[C@H]4[C@H](C)CC[C@@H]1[C@@]24O3` was tested. Which TGI (786-0 renal) did it give?
Answer: 41.3 µM

Question: What about the TGI (A498 renal) of the same molecule?
Answer: > 100 µM

Question: And the TGI (A549 NSCLC)?
Answer: > 100 µM

Question: And the TGI (ACHN renal)?
Answer: 26.9 µM

Question: What about the TGI (BT-549 breast) of the same molecule?
Answer: 22.2 µM

Question: What about the TGI (CAKI-1 renal) of the same molecule?
Answer: 46.4 µM

Question: What about the TGI (CCRF-CEM leukemia) of the same molecule?
Answer: 11.8 µM

Question: And the TGI (COLO 205 colon)?
Answer: 34.3 µM

Question: What about the TGI (DU-145 prostate) of the same molecule?
Answer: 27.5 µM

Question: And the TGI (EKVX NSCLC)?
Answer: 48.7 µM

Question: And the TGI (HCC-2998 colon)?
Answer: 41 µM

Question: What about the TGI (HCT-116 colon) of the same molecule?
Answer: 32.2 µM

Question: And the TGI (HCT-15 colon)?
Answer: 27.6 µM

Question: And the TGI (HL-60(TB) leukemia)?
Answer: > 100 µM

Question: And the TGI (HOP-62 NSCLC)?
Answer: > 100 µM

Question: And the TGI (HOP-92 NSCLC)?
Answer: 12.4 µM

Question: What about the TGI (HS 578T breast) of the same molecule?
Answer: > 100 µM

Question: What about the TGI (HT29 colon) of the same molecule?
Answer: 83.5 µM

Question: And the TGI (IGROV1 ovarian)?
Answer: 28.3 µM

Question: What about the TGI (K-562 leukemia) of the same molecule?
Answer: > 100 µM

Question: What about the TGI (KM12 colon) of the same molecule?
Answer: 21.3 µM

Question: What about the TGI (LOX IMVI melanoma) of the same molecule?
Answer: 40.1 µM

Question: And the TGI (M14 melanoma)?
Answer: > 100 µM

Question: What about the TGI (MALME-3M melanoma) of the same molecule?
Answer: 86.4 µM

Question: And the TGI (MCF7 breast)?
Answer: 25.3 µM

Question: And the TGI (MDA-MB-231 breast)?
Answer: 81.8 µM

Question: And the TGI (MDA-MB-435)?
Answer: > 100 µM

Question: And the TGI (MDA-N)?
Answer: > 100 µM

Question: And the TGI (MOLT-4 leukemia)?
Answer: 38.9 µM

Question: And the TGI (NCI-H226 lung)?
Answer: > 100 µM

Question: And the TGI (NCI-H23 lung)?
Answer: 40.1 µM

Question: And the TGI (NCI-H460 lung)?
Answer: 65.9 µM

Question: What about the TGI (NCI-H522 lung) of the same molecule?
Answer: 62.8 µM

Question: What about the TGI (OVCAR-3 ovarian) of the same molecule?
Answer: 93.5 µM

Question: What about the TGI (OVCAR-4 ovarian) of the same molecule?
Answer: 36.3 µM

Question: And the TGI (OVCAR-5 ovarian)?
Answer: > 100 µM

Question: What about the TGI (PC-3 prostate) of the same molecule?
Answer: 52.7 µM

Question: What about the TGI (RPMI-8226 leukemia) of the same molecule?
Answer: 36.8 µM

Question: And the TGI (RXF 393 renal)?
Answer: 54.7 µM

Question: And the TGI (SF-268 CNS)?
Answer: > 100 µM

Question: And the TGI (SF-295 CNS)?
Answer: > 100 µM

Question: And the TGI (SF-539 CNS)?
Answer: 32.2 µM

Question: What about the TGI (SK-MEL-2 melanoma) of the same molecule?
Answer: 46.9 µM

Question: And the TGI (SK-MEL-28 melanoma)?
Answer: > 100 µM

Question: And the TGI (SK-MEL-5 melanoma)?
Answer: > 100 µM

Question: And the TGI (SK-OV-3 ovarian)?
Answer: > 100 µM

Question: What about the TGI (SN12C renal) of the same molecule?
Answer: 59.2 µM

Question: And the TGI (SNB-19 CNS)?
Answer: > 100 µM

Question: What about the TGI (SR leukemia) of the same molecule?
Answer: 47 µM

Question: And the TGI (SW-620 colon)?
Answer: > 100 µM

Question: And the TGI (T-47D breast)?
Answer: 38.1 µM

Question: What about the TGI (TK-10 renal) of the same molecule?
Answer: 32.7 µM

Question: What about the TGI (U251 CNS) of the same molecule?
Answer: > 100 µM

Question: And the TGI (UACC-257 melanoma)?
Answer: 47.9 µM

Question: What about the TGI (UACC-62 melanoma) of the same molecule?
Answer: 29.7 µM

Question: What about the TGI (UO-31 renal) of the same molecule?
Answer: 63 µM

Question: Which results are given for `O=C1C=CC(=O)c2c1ccc1c3ccccc3n(CCCCCCCCn3c4ccccc4c4ccc5c(c43)C(=O)C=CC5=O)c21`?
Answer: TGI (786-0 renal): > 100 µM; TGI (A498 renal): > 100 µM; TGI (A549 NSCLC): > 100 µM; TGI (ACHN renal): > 100 µM; TGI (BT-549 breast): > 100 µM; TGI (CAKI-1 renal): > 100 µM; TGI (CCRF-CEM leukemia): > 100 µM; TGI (COLO 205 colon): > 100 µM; TGI (DU-145 prostate): > 100 µM; TGI (EKVX NSCLC): > 100 µM; TGI (HCC-2998 colon): > 100 µM; TGI (HCT-116 colon): > 100 µM; TGI (HCT-15 colon): > 100 µM; TGI (HL-60(TB) leukemia): > 100 µM; TGI (HOP-62 NSCLC): > 100 µM; TGI (HS 578T breast): > 100 µM; TGI (HT29 colon): > 100 µM; TGI (IGROV1 ovarian): > 100 µM; TGI (K-562 leukemia): > 100 µM; TGI (KM12 colon): > 100 µM; TGI (LOX IMVI melanoma): > 100 µM; TGI (M14 melanoma): > 100 µM; TGI (MALME-3M melanoma): > 100 µM; TGI (MCF7 breast): > 100 µM; TGI (MDA-MB-231 breast): > 100 µM; TGI (MDA-MB-435): > 100 µM; TGI (MDA-N): > 100 µM; TGI (MOLT-4 leukemia): > 100 µM; TGI (NCI-H226 lung): > 100 µM; TGI (NCI-H23 lung): > 100 µM; TGI (NCI-H460 lung): > 100 µM; TGI (NCI-H522 lung): > 100 µM; TGI (NCI/ADR-RES ovarian): > 100 µM; TGI (OVCAR-3 ovarian): > 100 µM; TGI (OVCAR-4 ovarian): > 100 µM; TGI (OVCAR-5 ovarian): > 100 µM; TGI (OVCAR-8 ovarian): > 100 µM; TGI (PC-3 prostate): > 100 µM; TGI (RPMI-8226 leukemia): > 100 µM; TGI (RXF 393 renal): > 100 µM; TGI (SF-268 CNS): > 100 µM; TGI (SF-295 CNS): > 100 µM; TGI (SF-539 CNS): > 100 µM; TGI (SK-MEL-2 melanoma): > 100 µM; TGI (SK-MEL-28 melanoma): > 100 µM; TGI (SK-MEL-5 melanoma): > 100 µM; TGI (SK-OV-3 ovarian): > 100 µM; TGI (SN12C renal): > 100 µM; TGI (SNB-19 CNS): > 100 µM; TGI (SW-620 colon): > 100 µM; TGI (T-47D breast): > 100 µM; TGI (TK-10 renal): > 100 µM; TGI (U251 CNS): > 100 µM; TGI (UACC-257 melanoma): > 100 µM; TGI (UACC-62 melanoma): > 100 µM

Question: Which results are given for `C[C@]12CC[C@H](O)CC1=CC[C@@H]1C2CC[C@]2(C)c3n[nH]nc3CC12` (stereo not given in full)?
Answer: TGI (786-0 renal): > 100 µM; TGI (A498 renal): > 100 µM; TGI (A549 NSCLC): > 100 µM; TGI (ACHN renal): > 100 µM; TGI (BT-549 breast): > 100 µM; TGI (CAKI-1 renal): > 100 µM; TGI (CCRF-CEM leukemia): > 100 µM; TGI (COLO 205 colon): > 100 µM; TGI (DU-145 prostate): > 100 µM; TGI (EKVX NSCLC): > 100 µM; TGI (HCC-2998 colon): > 100 µM; TGI (HCT-116 colon): > 100 µM; TGI (HL-60(TB) leukemia): > 100 µM; TGI (HOP-62 NSCLC): > 100 µM; TGI (HOP-92 NSCLC): > 100 µM; TGI (HS 578T breast): > 100 µM; TGI (HT29 colon): > 100 µM; TGI (IGROV1 ovarian): > 100 µM; TGI (K-562 leukemia): > 100 µM; TGI (KM12 colon): > 100 µM; TGI (M14 melanoma): > 100 µM; TGI (MALME-3M melanoma): > 100 µM; TGI (MCF7 breast): > 100 µM; TGI (MDA-MB-231 breast): > 100 µM; TGI (MDA-MB-435): > 100 µM; TGI (MDA-N): > 100 µM; TGI (MOLT-4 leukemia): > 100 µM; TGI (NCI-H226 lung): > 100 µM; TGI (NCI-H23 lung): > 100 µM; TGI (NCI-H460 lung): > 100 µM; TGI (NCI-H522 lung): > 100 µM; TGI (OVCAR-3 ovarian): > 100 µM; TGI (OVCAR-4 ovarian): > 100 µM; TGI (OVCAR-5 ovarian): > 100 µM; TGI (OVCAR-8 ovarian): > 100 µM; TGI (PC-3 prostate): > 100 µM; TGI (RXF 393 renal): > 100 µM; TGI (SF-268 CNS): > 100 µM; TGI (SF-295 CNS): > 100 µM; TGI (SF-539 CNS): > 100 µM; TGI (SK-MEL-28 melanoma): > 100 µM; TGI (SK-MEL-5 melanoma): > 100 µM; TGI (SK-OV-3 ovarian): > 100 µM; TGI (SN12C renal): > 100 µM; TGI (SNB-19 CNS): > 100 µM; TGI (SNB-75 CNS): > 100 µM; TGI (SR leukemia): 96.4 µM; TGI (SW-620 colon): > 100 µM; TGI (T-47D breast): > 100 µM; TGI (TK-10 renal): > 100 µM; TGI (U251 CNS): > 100 µM; TGI (UACC-257 melanoma): > 100 µM; TGI (UACC-62 melanoma): > 100 µM; TGI (UO-31 renal): > 100 µM
